# Results reported in ChEMBL document CHEMBL1125162, “High-potency dipeptide sweeteners. 2. L-aspartylfuryl-, thienyl-, and imidazolylglycine esters” (J Med Chem, 1990).
# Test: Sweetness potency compared to 5-10% sucrose
# Type: functional
row,SMILES,Potency
1,CC1(C)C2CC[C@](C)(C2)[C@@H]1OC(=O)C(NC(=O)[C@@H](N)CC(=O)O)c1ccccc1 (stereo in doubt; 5),3700
2,CC12CCC(C1)C(C)(C)C2OC(=O)C(NC(=O)[C@@H](N)CC(=O)O)c1ccsc1 (some centres not stated),2300
3,CC1(C)C2CC[C@](C)(C2)[C@@H]1OC(=O)C(NC(=O)[C@@H](N)CC(=O)O)c1ccccc1 (stereo in doubt; 4),1200
4,COC(=O)C(NC(=O)[C@@H](N)CC(=O)O)C(=O)O[C@@H]1C(C)(C)C2CC[C@]1(C)C2 (stereo in doubt; 2),30000
5,CC12CCC(C1)C(C)(C)C2OC(=O)C(NC(=O)[C@@H](N)CC(=O)O)c1cccs1 (some centres not stated),2000
6,CC12CCC(C1)C(C)(C)C2OC(=O)C(NC(=O)[C@@H](N)CC(=O)O)C1CCCO1 (some centres not stated),0
7,COC(=O)C(NC(=O)[C@@H](N)CC(=O)O)C(=O)O[C@@H]1C(C)(C)C2CC[C@]1(C)C2 (stereo in doubt; 3),50000
8,CC12CCC(C1)C(C)(C)[C@H]2OC(=O)[C@H](NC(=O)[C@@H](N)CC(=O)O)c1ccco1 (some centres not stated),16500
9,CC1CCC(C)C1OC(=O)C(NC(=O)[C@@H](N)CC(=O)O)c1ccco1 (some centres not stated),400
10,CC12CCC(C1)C(C)(C)[C@@H]2OC(=O)C(NC(=O)[C@@H](N)CC(=O)O)c1ccco1 (some centres not stated),630
11,CC12CCC(C1)C(C)(C)C2OC(=O)C(Cc1cccs1)NC(=O)[C@@H](N)CC(=O)O (some centres not stated),0
12,CC12CCC(C1)C(C)(C)C2OC(=O)C(NC(=O)[C@@H](N)CC(=O)O)c1c[nH]cn1 (some centres not stated),350
